Assay results taken from patent US10201617B2, “3-substituted piperidine-2, 6-diones and non-covalent complexes with albumin” (Zhuhai Beihai Biotech Co., Ltd., priority 2014, dated 2019).

How the values were obtained:
[1] = regardless of pH; cited from earlier work
CYP1A2 = target: T1, CYP1A2 (Homo sapiens, UniProt P05177); conditions: cited from earlier work
T1 sequence (P05177 1-516): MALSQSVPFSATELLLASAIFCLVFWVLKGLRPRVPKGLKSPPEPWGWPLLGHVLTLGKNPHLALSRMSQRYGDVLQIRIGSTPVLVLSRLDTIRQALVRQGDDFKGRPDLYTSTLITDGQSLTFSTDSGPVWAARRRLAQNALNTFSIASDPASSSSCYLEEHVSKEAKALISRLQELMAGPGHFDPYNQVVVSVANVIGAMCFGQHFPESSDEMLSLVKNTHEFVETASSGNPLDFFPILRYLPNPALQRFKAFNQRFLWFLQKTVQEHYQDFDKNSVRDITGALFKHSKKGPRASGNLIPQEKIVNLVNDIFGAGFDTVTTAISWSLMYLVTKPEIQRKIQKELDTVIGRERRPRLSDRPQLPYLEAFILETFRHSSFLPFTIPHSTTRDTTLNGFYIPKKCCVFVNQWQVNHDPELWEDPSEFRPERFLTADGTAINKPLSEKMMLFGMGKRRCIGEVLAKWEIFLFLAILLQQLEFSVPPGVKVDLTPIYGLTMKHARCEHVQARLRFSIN

CYP3A = conditions: cited from earlier work
[2] = Persistence control: incubation in PBS buffer (pH 7.4) at 37° C., LC-MS/MS; assay type: physicochemical; conditions: for Peak Area Ratio (Analyte/incubation sample): PBS Buffer, 24 hr; for % Remaining after 24-hr Incubation at 37° C.: PBS buffer
[3] = Persistence in plasma: incubation with human plasma at 37° C., LC-MS/MS; assay type: in vitro ADME; conditions: for Peak Area Ratio (Analyte/incubation sample): Human Plasma
Procedure: Test compounds and control (procaine) were incubated at a concentration of 10 μM with human plasma. […]
After quenching by acetonitrile, the plates were capped, vortexed, and centrifuged at 3000 rpm for 10 minutes. The supernatant was injected into LC-MS/MS.

Structure (SMILES)	solubility [1]	substrate of CYP1A2 liver enzyme (CYP1A2)	substrate of CYP3A liver enzyme (CYP3A)	Peak Area Ratio (Analyte/incubation sample) ([2]; Replicate 1)	Peak Area Ratio (Analyte/incubation sample) ([2]; Replicate 2)	% Remaining after 24-hr Incubation at 37° C. ([2]; Average) [%]	% Remaining after 24-hr Incubation at 37° C. ([2]; Replicate 1) [%]	% Remaining after 24-hr Incubation at 37° C. ([2]; Replicate 2) [%]	Peak Area Ratio (Analyte/incubation sample) ([3]; 0 hr, Replicate 1)	Peak Area Ratio (Analyte/incubation sample) ([3]; 0 hr, Replicate 2)	Peak Area Ratio (Analyte/incubation sample) ([3]; 24 hr, Replicate 1)	Peak Area Ratio (Analyte/incubation sample) ([3]; 24 hr, Replicate 2)	% Remaining after 24-hr Incubation at 37° C. ([3]; human, plasma, 24 h, 10 μM) [%]
Nc1cccc2c1C(=O)N(C1CCC(=O)NC1=O)C2=O (stereo not shown) [pomalidomide]	about 0.01 mg/mL	substrate	substrate	–	–	–	–	–	–	–	–	–	–
CCN(CC)CCOC(=O)c1ccc(N)cc1 [Procaine, procaine]	–	–	–	0.413	0.419	109	108.40	109.97	0.311	0.451	0.0	0.0	0.0
